According to patent US6127339A, “Peptide for binding thereto a low density lipoprotein” (Asahi Kasei Kogyo Kabushiki Kaisha, priority 1995, dated 2000):
No end group written: not given here.

What was measured:
LDL [1] = experiment: BIAcore affinity of immobilized peptide to LDL in plasma; format: binding; settings: plasma containing 1 mg/ml LDL versus LDL-free plasma; based on the immobilized amount of RRWFW-CONH2 as standard
From the text: (§1) Further, the binding ability (affinity) of the adsorbent for an LDL can also be determined by using BIAcore (manufactured and sold by Pharmacia Biosensor AB, Sweden), in accordance with the instructions given in a manual attached to BIAcore. Specifically, the binding ability of the adsorbent for an LDL can also be determined by a method in which the peptide is immobilized on a sensor chip of the BIAcore, and a solution containing LDL, such as plasma, is flowed over the sensor chip.
Twenty-seven different peptides and four different comparative peptides (which are all shown in Table 12, wherein for Example 12, Sample Nos. 12-15 are SEQ ID NOS:12-15, respectively) were prepared in substantially the same manner as in Example 7. Each of the obtained peptides was individually dissolved in a 10 mM acetate buffer (pH: 5.5) to thereby obtain peptide solutions each having a peptide concentration of […]. […]
The affinity of the peptide to the LDL in plasma was measured using the above-mentioned BIAcore (provided with the sensor chip having the peptide immobilized thereon) as follows. […]

LDL [2] = experiment: BIAcore affinity of immobilized peptide to LDL in HBS buffer; format: binding; settings: 6-minute injection, based on the immobilized amount of RRWFW-CONH2 as standard
From the text: as §1
Twenty-six different peptides and four different comparative peptides (which are all shown in Table 11; wherein for Example 11, Sample Nos. 1, 4 and 5-26 are SEQ ID NOS:35, 89 and 36-57, respectively, and wherein for Comparative Example 8, Sample Nos. 1, 2, 3 and 4 are SEQ ID NOS:86, 87, 90 and 88, respectively) were prepared in substantially the same manner as in Example 7. […]
The affinity of the peptide to the LDL contained in HBS buffer was measured using the above-mentioned BIAcore (provided with the sensor chip having the peptide immobilized thereon) as follows. […] However, since the amounts of the peptides immobilized on the sensor chip vary depending on the types of the peptides, the amount of a peptide of RRWFW-CONH2 immobilized on the sensor chip was taken as a standard amount and the affinities of various tested peptides were determined, based on the above standard amount.

| Substance | Affinity to LDL (RU) (LDL [1]) | Affinity to LDL (RU) (LDL [2]) |
| --- | --- | --- |
| DPSVY-CONH2 (DPSVY-NH2) | 250 | 310 |
| EMEEV-CONH2 (EMEEV-NH2) | 270 | 730 |
